From patent publication US20250154686A1, “COMPOUND LIBRARY” (CHUGAI SEIYAKU KABUSHIKI KAISHA, priority 2021, published 2025)

Target: T1, Bcl-2 protein (Recombinant Human Bcl-2 Protein) (Homo sapiens, UniProt P10415)
T1 construct: purchased Novus Biologicals NBP2-34889
Test: AS-MS evaluation of binding of the Example 4 mixture library (1200 compounds/well) to Bcl-2, ASMS ratio (%)
In short: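 Binding is read as an ASMS ratio from reverse-phase LC/MS peak data. Samples: 1200 compounds at 20 nM each with 20 μM Bcl-2, 1 h at 23 °C in the dark, then P-2 SEC and organic-solvent extraction; references lacked protein, with and without SEC.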

[1] = AS-MS, Example 4 mixture library, Bcl-2, replicate n = 1
[2] = AS-MS, Example 4 mixture library, Bcl-2, replicate n = 2
[3] = AS-MS, mixture of 1200 compounds/well, Bcl-2 protein, replicate n = 1
[4] = AS-MS, mixture of 1200 compounds/well, Bcl-2 protein, replicate n = 2
[5] = replicate n = 1, mixture library, value belongs to the MS peak assigned to the compound
[6] = replicate n = 2, mixture library, value belongs to the MS peak assigned to the compound

T1 sequence (P10415 whole entry): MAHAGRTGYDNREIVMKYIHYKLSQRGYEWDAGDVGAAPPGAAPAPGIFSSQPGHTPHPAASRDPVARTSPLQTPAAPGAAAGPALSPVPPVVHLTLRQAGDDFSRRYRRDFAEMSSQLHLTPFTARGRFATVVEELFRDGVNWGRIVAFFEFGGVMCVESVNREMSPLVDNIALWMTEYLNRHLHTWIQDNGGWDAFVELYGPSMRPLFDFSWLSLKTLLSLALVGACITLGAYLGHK

ASMS ratio (%) n = 1 [1]	ASMS ratio (%) n = 2 [2]	ASMS ratio (%) n = 1 [5]	ASMS ratio (%) n = 2 [6]	other results	Compound
0.0%	0.0%				CCOc1cncc(-c2cc(C(=O)N3CCN(c4ccc(C(=O)NS(=O)(=O)CCC(F)(F)F)nn4)CC3)cc(C(C)(C)C)c2)c1 [Compound B2N016-01, 6-[4-[3-tert-Butyl-5-(5-ethoxypyridin-3-yl)benzoyl]piperazin-1-yl]-N-(3,3,3-trifluoropropylsulfonyl)pyridazine-3-carboxamide]
2.6%	0.2%				CCOc1cncc(-c2cc(C(=O)N3CCN(c4ccc(C(=O)NS(=O)(=O)c5ccc(NCCSc6ccccc6)c(C(F)(F)F)c5)cc4)CC3)cc(C(F)(F)F)c2)c1 [Compound B2R040-01, 4-[4-[3-(5-Ethoxypyridin-3-yl)-5-(trifluoromethyl)benzoyl]piperazin-1-yl]-N-[4-(2-phenylsulfanylethylamino)-3-(trifluoromethyl)phenyl]sulfonylbenzamide]
24.0%	0.0%				CCOc1cccc(-c2ccc(CN3CCN(c4ccc(C(=O)NS(=O)(=O)c5ccc(NCCSc6ccccc6)c(C(F)(F)F)c5)nn4)CC3)cc2C)c1 [Compound B2R073-01, 6-[4-[[4-(3-Ethoxyphenyl)-3-methylphenyl]methyl]piperazin-1-yl]-N-[4-(2-phenylsulfanylethylamino)-3-(trifluoromethyl)phenyl]sulfonylpyridazine-3-carboxamide]
0.0%	0.0%				CCOc1cncc(-c2csc(C(=O)N3CCN(c4ccc(C(=O)NS(=O)(=O)c5ccc(NCCSc6ccccc6)c(C(F)(F)F)c5)nn4)CC3)c2)c1 [Compound B2R002-01, 6-[4-[4-(5-Ethoxypyridin-3-yl)thiophene-2-carbonyl]piperazin-1-yl]-N-[4-(2-phenylsulfanylethylamino)-3-(trifluoromethyl)phenyl]sulfonylpyridazine-3-carboxamide]
				ASMS ratio (%) n = 1 [3]: −2.4%; ASMS ratio (%) n = 2 [4]: −3.0%	CCCNC(=O)c1ccc(N2CCN(C(=O)c3cc(-c4cccc(OCC)c4)cc(C(C)(C)C)c3)CC2)nn1 [Compound B1M015-01]
0.0%	0.0%				CCOc1cncc(-c2csc(C(=O)N3CCN(c4ccc(C(=O)NS(=O)(=O)CCC(F)(F)F)cc4)CC3)c2)c1 [Compound B2N024-01, 4-[4-[4-(5-Ethoxypyridin-3-yl)thiophene-2-carbonyl]piperazin-1-yl]-N-(3,3,3-trifluoropropylsulfonyl)benzamide]
0.0%	0.0%				CCOc1cncc(-c2ccc(CN3CCN(c4ccc(C(=O)NS(=O)(=O)CCC(F)(F)F)nn4)CC3)c(OC)c2)c1 [Compound B2N080-01, 6-[4-[[4-(5-Ethoxypyridin-3-yl)-2-methoxyphenyl]methyl]piperazin-1-yl]-N-(3,3,3-trifluoropropylsulfonyl)pyridazine-3-carboxamide]
				ASMS ratio (%) n = 1 [3]: 1.5%; ASMS ratio (%) n = 2 [4]: 0.0%	CCCNC(=O)c1ccc(N2CCN(C(=O)c3cc(C#Cc4cccc(OCC)c4)cc(C(F)(F)F)c3)CC2)nn1 [Compound B1M019-01]
		0.0%	0.0%		CCOc1cncc(-c2cc(CN3CCN(c4ccc(C(=O)NS(=O)(=O)C(C)(C)C)cc4)CC3)cc(C(F)(F)F)c2)c1 [Compound B2L062-01, N-tert-Butylsulfonyl-4-[4-[[3-(5-ethoxypyridin-3-yl)-5-(trifluoromethyl)phenyl]methyl]piperazin-1-yl]benzamide]
		0.0%			CCOc1cncc(-c2ccc(CN3CCN(c4ccc(C(=O)NS(C)(=O)=O)nn4)CC3)c(OC)c2)c1 [Compound B2I080-01, 6-[4-[[4-(5-Ethoxypyridin-3-yl)-2-methoxyphenyl]methyl]piperazin-1-yl]-N-methylsulfonylpyridazine-3-carboxamide]
0.0%	0.0%				CCOc1cncc(-c2ccc(CN3CCN(c4ccc(C(=O)NS(=O)(=O)CCC(F)(F)F)nn4)CC3)c3ccccc23)c1 [Compound B2N092-01, 6-[4-[[4-(5-Ethoxypyridin-3-yl)naphthalen-1-yl]methyl]piperazin-1-yl]-N-(3,3,3-trifluoropropylsulfonyl)pyridazine-3-carboxamide]
		2.7%	1.0%		CCOc1cncc(-c2ccc(CN3CCN(c4ccc(C(=O)NS(=O)(=O)C(C)(C)C)cc4)CC3)cc2F)c1 [Compound B2L052-01, N-tert-Butylsulfonyl-4-[4-[[4-(5-ethoxypyridin-3-yl)-3-fluorophenyl]methyl]piperazin-1-yl]benzamide]
		0.0%	0.0%		CCOc1cccc(-c2csc(CN3CCN(c4ccc(C(=O)NS(C)(=O)=O)cc4)CC3)c2)c1 [Compound B2I067-01, 4-[4-[[4-(3-Ethoxyphenyl)thiophen-2-yl]methyl]piperazin-1-yl]-N-methylsulfonylbenzamide]
		0.0%	0.0%		CCOc1cncc(-c2csc(C(=O)N3CCN(c4ccc(C(=O)NS(=O)(=O)C(C)(C)C)nn4)CC3)c2)c1 [Compound B2L002-01, N-tert-Butylsulfonyl-6-[4-[4-(5-ethoxypyridin-3-yl)thiophene-2-carbonyl]piperazin-1-yl]pyridazine-3-carboxamide]
0.0%	0.0%				CCOc1cccc(-c2ccc(C(=O)N3CCN(c4ccc(C(=O)NS(=O)(=O)CCC(F)(F)F)cc4)CC3)c3ccccc23)c1 [Compound B2N035-01, 4-[4-[4-(3-Ethoxyphenyl)naphthalene-1-carbonyl]piperazin-1-yl]-N-(3,3,3-trifluoropropylsulfonyl)benzamide]
		1.8%	−0.3%		CCOc1cncc(-c2ccc(CN3CCN(c4ccc(C(=O)NS(=O)(=O)C(C)(C)C)nn4)CC3)c(CC)c2)c1 [Compound B2L076-01]
0.0%	−15.5%				CCOc1cccc(-c2csc(C(=O)N3CCN(c4ccc(C(=O)NS(=O)(=O)c5ccc(NCCSc6ccccc6)c(C(F)(F)F)c5)cc4)CC3)c2)c1 [Compound B2R023-01, 4-[4-[4-(3-Ethoxyphenyl)thiophene-2-carbonyl]piperazin-1-yl]-N-[4-(2-phenylsulfanylethylamino)-3-(trifluoromethyl)phenyl]sulfonylbenzamide]
				ASMS ratio (%) n = 2 (Example 4 mixture library, 1200 compounds/well, Bcl-2 protein, replicate n = 2, value belongs to the MS peak assignable to the compound): 5.5%	CCOc1cccc(-c2ccc(CN3CCN(c4ccc(C(=O)N(CC)CC)nn4)CC3)cc2F)c1 [Compound B4J077-01, 6-[4-[[4-(3-Ethoxyphenyl)-3-fluorophenyl]methyl]piperazin-1-yl]-N,N-diethylpyridazine-3-carboxamide]
		−0.6%	1.5%		CCOc1cncc(-c2ccccc2CN2CCN(c3ccc(C(=O)NS(C)(=O)=O)cc3)CC2)c1 [Compound B2I046-01, 4-[4-[[2-(5-Ethoxypyridin-3-yl)phenyl]methyl]piperazin-1-yl]-N-methylsulfonylbenzamide]
				ASMS ratio (%) n = 1 [3]: 18.6%; ASMS ratio (%) n = 2 [4]: 7.5%	CCCNC(=O)c1ccc(N2CCN(C(=O)CCc3ccccc3-c3cccc(OCC)c3)CC2)nn1 [Compound B1M011-01]
		0.0%	0.0%		CCOc1cccc(-c2ccccc2CCC(=O)N2CCN(c3ccc(C(=O)NS(=O)(=O)C(C)(C)C)nn3)CC2)c1 [Compound B2L011-01]
